The source of these data is patent US20260356824A1, “COMPOUNDS FOR TREATING FIBROTIC DISEASES” (Meta-Immue Inc., priority 2023, published 2026).

By IC50 is commonly meant the concentration needed to halve the response being measured. As a reminder, the fraction remaining is what is left of the initial amount, in per cent. By inhibition is commonly meant how much of the control response was suppressed.

The target of one data set is T1, hLPAR1 (Homo sapiens, UniProt Q92633).
T1 construct: expressed in transfected cells
As to the kind of experiment: Ca2+ Flux Assay (B103 cells stably expressing hLPAR1). It is filed as cell-based. The conditions noted are these: LPA-induced calcium release, Fura-2 AM, compound 20 min at RT. The procedure, abridged: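 Fura-2 AM (5 μM) loaded 40 min at RT in HBSS/20 mM HEPES/probenecid/0.3% fatty-acid-free BSA after 2 h serum starvation. Compounds preincubated 20 min at RT, then LPA […] added. Intracellular calcium mobilization read as fluorescence intensity.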
In general terms: Calcium flux is commonly read through the fluorescence of an indicator in the cells.

The test system of another data set is A2058 cells. As to the kind of experiment: Chemotaxis Assay (LPA-induced migration of A2058 cells). It is filed as cell-based. The conditions noted are these: Homo sapiens, 4 to 8 hours, crystal violet 590 nm. The method in brief: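 A2058 cells, starved 24 hr and treated with test compound or vehicle, were placed on a fibronectin-coated membrane ([…]) above […] in DMEM. After 4–8 h migration, migrated cells were crystal violet stained and read at 590 nm. Values are relative percentage of control.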

The nature of data set [1]: Liver microsomal stability, human. The format is in vitro ADME. The settings on record: human liver microsomes; 30 min; percent of parent remaining; read-out: Liver Microsomal stability (%), % of remaining after 30 min, Human.
The target in the next data set is T2, BSEP (Homo sapiens, UniProt O95342).
T2 construct: ATP-dependent uptake of radiolabelled probe substrate
As to the kind of experiment: Bile Salt Export Pump (BSEP) Assay, Sf9 insect cell vesicles expressing BSEP. It is filed as in vitro ADME. The conditions noted are these: 10 μM test compound, probe substrate 1 μM [3H]-taurocholic acid, 15 min incubation. The method in brief:
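BSEP-expressing Sf9 vesicles were incubated at 37 °C with probe substrate and test article (0.5% DMSO) in HEPES-Tris pH 7.4 KNO3/Mg/sucrose buffer, and transport was started with 5 mM Mg-ATP or AMP. After rapid filtration, substrate was counted radiometrically; ATP-dependent rate = ATP minus mean AMP accumulation per incubation time, giving percent inhibition.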

Data set [2] in a line: Liver microsomal stability, rat. It is filed as in vitro ADME. The settings on record: rat liver microsomes; 30 min; percent of parent remaining; read-out: Liver Microsomal stability (%), % of remaining after 30 min, Rat.

T1 sequence (Q92633 whole entry): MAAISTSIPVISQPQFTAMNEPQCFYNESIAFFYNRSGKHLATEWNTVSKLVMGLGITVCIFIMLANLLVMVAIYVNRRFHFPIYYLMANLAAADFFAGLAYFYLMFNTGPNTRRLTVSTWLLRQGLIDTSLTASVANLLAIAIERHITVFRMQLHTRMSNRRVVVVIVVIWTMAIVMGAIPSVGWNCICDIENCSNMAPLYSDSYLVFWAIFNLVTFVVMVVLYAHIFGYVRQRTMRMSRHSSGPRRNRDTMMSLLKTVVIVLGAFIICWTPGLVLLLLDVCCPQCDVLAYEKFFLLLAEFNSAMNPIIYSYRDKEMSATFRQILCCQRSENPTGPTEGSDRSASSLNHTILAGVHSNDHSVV
T2 sequence (O95342 whole entry): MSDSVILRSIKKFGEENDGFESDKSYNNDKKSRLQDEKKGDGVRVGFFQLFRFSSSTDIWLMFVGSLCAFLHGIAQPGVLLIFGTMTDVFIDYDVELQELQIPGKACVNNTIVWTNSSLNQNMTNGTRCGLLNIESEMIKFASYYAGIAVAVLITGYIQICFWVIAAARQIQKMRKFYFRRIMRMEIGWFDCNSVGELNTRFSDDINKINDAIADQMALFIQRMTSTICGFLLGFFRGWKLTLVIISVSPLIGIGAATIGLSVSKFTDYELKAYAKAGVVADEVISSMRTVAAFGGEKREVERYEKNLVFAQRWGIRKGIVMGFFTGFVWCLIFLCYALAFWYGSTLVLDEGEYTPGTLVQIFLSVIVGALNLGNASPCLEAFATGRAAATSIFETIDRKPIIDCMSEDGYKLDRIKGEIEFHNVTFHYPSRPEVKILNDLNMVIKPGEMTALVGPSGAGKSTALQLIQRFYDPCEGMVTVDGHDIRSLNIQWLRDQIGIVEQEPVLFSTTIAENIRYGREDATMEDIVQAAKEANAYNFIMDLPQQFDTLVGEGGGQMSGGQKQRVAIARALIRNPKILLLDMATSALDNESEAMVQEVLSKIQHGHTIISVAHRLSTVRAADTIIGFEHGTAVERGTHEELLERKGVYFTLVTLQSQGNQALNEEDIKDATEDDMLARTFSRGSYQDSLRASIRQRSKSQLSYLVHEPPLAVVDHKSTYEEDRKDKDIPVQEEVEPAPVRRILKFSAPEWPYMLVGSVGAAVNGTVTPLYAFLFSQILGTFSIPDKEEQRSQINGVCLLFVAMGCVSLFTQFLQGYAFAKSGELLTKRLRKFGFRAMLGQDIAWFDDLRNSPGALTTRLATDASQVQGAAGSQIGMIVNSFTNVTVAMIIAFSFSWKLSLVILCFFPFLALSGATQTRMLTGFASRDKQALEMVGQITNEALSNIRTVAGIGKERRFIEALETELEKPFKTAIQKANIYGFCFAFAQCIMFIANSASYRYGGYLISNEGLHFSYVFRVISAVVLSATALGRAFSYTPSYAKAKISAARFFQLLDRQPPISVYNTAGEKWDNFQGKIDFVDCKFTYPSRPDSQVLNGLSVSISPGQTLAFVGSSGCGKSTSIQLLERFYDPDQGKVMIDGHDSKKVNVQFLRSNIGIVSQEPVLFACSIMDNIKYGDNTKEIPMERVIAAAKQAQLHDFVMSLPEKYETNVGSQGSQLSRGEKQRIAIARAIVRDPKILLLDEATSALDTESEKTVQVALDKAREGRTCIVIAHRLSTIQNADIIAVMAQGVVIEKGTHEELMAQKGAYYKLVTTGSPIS

For the compound `Cc1noc(N2CCC(c3ccc(C4(C(=O)O)CC4)cc3)CC2)c1NC(=O)O[C@H](C)c1ccccc1` [Compound 8, (R)-1-(4-(1-(3-methyl-4-(((1-phenylethoxy)carbonyl)amino)isoxazol-5-yl)piperidin-4-yl)phenyl)cyclopropane-1-carboxylic acid], the IC50 on hLPAR1 is below 10 nM; in the data set on A2058 cells it was 100 to 500 nM. Besides, the amount remaining at 0.5 h in data set [1] and in data set [2] was 50 to 75% in each case. In addition, the inhibition at 0.25 h, 10 µM on BSEP lay within 50 to 75%.
As to `Cc1noc([C@H]2CCN(c3ccc(C4(C(=O)O)CC4)cc3)[C@@H](C)C2)c1NC(=O)O[C@H](C)c1ccccc1` (single isomer, unassigned) [Compound 10], the IC50 is 10 to 200 nM at hLPAR1 and below 100 nM in the data set with A2058 cells. In addition, the fraction remaining at 0.5 h in data set [1] and in data set [2] was above 75% each time. Also, at BSEP, the inhibition at 0.25 h, 10 µM was in the range of 25 to 50%.
